Test results as given in US5068183A, “Method for measurement of α-amylase activity” (Kurita Water Industries, Ltd., priority 1986, dated 1991).

Assays:
[1] = test system: α-amylase; assay: Measurement of α-amylase activity with Reagent I (substrate, α-glucosidase, mannitol dehydrogenase, NADH); format: biochemical; settings: substrate 1 mmol/l; sample serum containing 90 mU/ml and 270 mU/ml; 37° C., 10 minutes; linear after 6 minutes
Procedure: When the substrate and glucosidase as a coupled enzyme are added to a sample such as a body fluid or the like, the reaction proceeds as shown below in the case of the malto-oligo saccharide represented by general formula (I) (hereinafter MeG5 F represented by general formula (IV) is used as a specific example of general formula (I)). [drawing 6]
The thus liberated monosaccharides such as fructose or the like and derivatives thereof are reacted with, for example, mannitol dehydrogenase (MDH) or sorbitol dehydrogenase (SDH) in the presence of NADH thereby to produce […]; by the change in absorbancy, the amount of fructose can be determined. [drawing 7]
Reagent I was prepared by the following formulation.
(§1) 1 mmol/l (final concentration)
(§2) 25 U/ml (final concentration)
40 U/ml (final concentration)
NADH 0.16 mmol/l (final concentration)
(§3) 100 mmol/l (final concentration)
100 mmol/1 (final concentration) To 800 μl of Reagent I described above was added 100 μl of a sample serum containing 90 mU/ml and 270 mU/ml, respectively. While incubating at 37° C. for 10 minutes, change in absorbancy was measured at 340 nm.
Measurement was performed in a similar manner except that 100 mg/ml of glucose was further added to each sample serum.

[2] = test system: α-amylase; assay: Measurement of α-amylase activity with Reagent II (substrate, α-glucosidase, inositol dehydrogenase, NAD); format: biochemical; settings: substrate 1 mmol/l; sample serum containing 55 mU/ml and 220 mU/ml; 37° C., 10 minutes; linear after 4 minutes
Procedure: On the other hand, in the case of using the malto-oligo saccharide represented by general formula (V), when the substrate and glucosidase as a coupled enzyme are added to a sample such as a body fluid or the like, the reaction proceeds as shown below (hereinafter G5 I represented by general formula (VI) is used as a specific example of general formula (V)). [drawing 8]
The thus liberated inositol or derivatives thereof are reacted with inositol dehydrogenase (IDH) in the presence of NAD thereby to produce NADH; by the change in absorbancy, the amount of inositol can be determined. [drawing 9]
Reagent II was prepared by the following formulation.
as §1, §2
40 U/ml (final concentration
NAD 40 mmol/l (final concentration)
as §3
To 800 μl of Reagent II described above was added 100 μl of a sample serum containing 55 mU/ml and 220 mU/ml, respectively. While incubating at 37° C. for 10 minutes, change in absorbancy was measured at 340 nm.
Measurement was performed in a similar manner as in Example 5 except that 100 mg/ml of glucose was further added to each sample serum.

| Compound | change in absorbancy at 340 nm (FIG. 1) [1] | change in absorbancy at 340 nm (FIG. 2) [2] |
| --- | --- | --- |
| COC[C@H]1O[C@H](O[C@H]2[C@H](O)[C@@H](O)[C@@H](O[C@H]3[C@H](O)[C@@H](O)[C@@H](O[C@H]4[C@H](O)[C@@H](O)[C@@H](O[C@H]5[C@H](O)[C@@H](O)[C@@H](O[C@]6(CO)O[C@H](CO)[C@@H](O)[C@@H]6O)O[C@@H]5CO)O[C@@H]4CO)O[C@@H]3CO)O[C@@H]2CO)[C@H](O)[C@@H](O)[C@@H]1OC [MeG5 F] | good linear relationship was obtained in any concentration after 6 minutes |  |
| OC[C@H]1O[C@H](O[C@H]2[C@H](O)[C@@H](O)[C@@H](O[C@H]3[C@H](O)[C@@H](O)[C@@H](O[C@H]4[C@H](O)[C@@H](O)[C@@H](O[C@H]5[C@H](O)[C@@H](O)[C@@H](OC6C(O)C(O)C(O)C(O)C6O)O[C@@H]5CO)O[C@@H]4CO)O[C@@H]3CO)O[C@@H]2CO)[C@H](O)[C@@H](O)[C@@H]1O (some centres unmarked) [G5 I] |  | good linear relationship was obtained in any concentration after 4 minutes |
